In US7628979B1, “Use of calco oil blue V in bait formulations for marking and controlling subterranean termites” (The United States of America as represented by the …, priority 2005, dated 2009):

Legend:
[1] = test system: Formosan subterranean termite workers; assay: Laboratory foraging-box bait test, groups of 1000 termite workers (colorant:CSI dose determination); format: in vivo, Coptotermes formosanus; conditions: for Groups of 1000 termite workers alive: of 12 boxes
Method: Under a laminar flow hood, 66 g colored cellulose powder at concentration of 50, 100, 225, 250, 500, or 750 ppm (0.010, 0.020, 0.045, 0.050, 0.100, or 0.150 g, respectively) from example 1 was mixed with 135 ml of sterile nutritional supplement (formulated as in example 1) in a 250 ml sterile glass beaker (prepared as reported by Rojas, M. G. and Morales-Ramos, J. A., “Bait matrix for delivery of chitin synthesis inhibitors to the Formosan subterranean termite [Isoptera: Rhinotermitidae],” J. Econ. Entomol., 94(2): 506-510 (2001)). A dose of 175 ppm of diflubenzuron was added to the formulations containing 50 and 100 ppm of calco oil blue. A lower dose of 50 ppm of diflubenzuron was added to the formulations containing 225 and 500 ppm of calco oil blue. The mixture was manually homogenized using a stainless steel spatula. To encase the bait matrix, tubes made of fibrous casing material (#124B; L.E.M. Products, Inc., Miamitown, Ohio) were cut into 150 mm long portions as reported by Rojas and Morales-Ramos (2001) supra. Fifty grams of bait matrix containing the blue colorant was compacted into one end of the inlet tube, at which point the open end of the inlet tube was closed with a rubber band. The bait casing was placed inside the foraging box adjacent to a 10 g piece of pine wood, taking care that they were partially covered with the sand. Control bait matrix was prepared minus blue colorant, and presented in the same was as the treatment matrix to Formosan subterranean termite workers taken from four different colonies, with 3 boxes per locality totaling twelve boxes of 1000 termites per treatment (Rojas and Morales-Ramos supra). All the experimental boxes were maintained under darkness at 27±1° C. and 90±2% relative humidity. Observations were done every 72 hours until all the termites died. The time to reach 100% mortality was measured and recorded. Mean comparisons among treatments and control were conducted.

[2] = test system: Formosan subterranean termites; assay: In-field marking and control, bait at infested trees, sites 1 and 2; format: in vivo; conditions: for Bait consumption: 250 ppm bait
From the text: (§1) Formosan subterranean termite and native subterranean termite infested trees (Water Oaks and Legastrums) in New Orleans, La. were chosen for this study. Three sites were selected located at the Southern Regional Research Center campus. Site 1 was located near the service building next to an old water oak tree, site 2 was located in the compound area near ligastrum trees, and site 3 near ligastrum trees outside the compound area. Sites 1 and 2 were active with Formosan subterranean termites and site 3 with Eastern subterranean termites.
(§2) The colored bait matrix at 250 ppm was encapsulated as described above and placed directly in the base of the trees where termites were foraging, making sure that the encapsulated colored bait matrix was covered with soil or with a piece of wood or brick on top of it to prevent desiccation. The bait was periodically inspected for consumption and termite activity. The field study started in early August and was completed by the end of the following June. During winter (December-February) termite activity decreased considerably, but by April termite activity and foraging resumed and the blue colored matrix was replaced by bait formulation containing 250 ppm of chitin synthesis inhibitors to kill the colonies. Diflubenzuron was used in 2 of the sites and chlorfluazuron was used in the remaining site.

[3] = test system: Eastern subterranean termites; assay: In-field marking and control, bait at infested trees, site 3; format: in vivo; conditions: Site 3 (Ligastrum), 250 ppm bait
From the text: as §1, §2

`CCCCC(CC)CNc1ccc(NCC(CC)CCCC)c2c1C(=O)c1ccccc1C2=O` (centres unmarked) [Calco oil blue V, 9,10-anthracenedione, 1,4-bis[(2-ethylhexyl)amino]] was tested, and the “Groups of 1000 termite workers alive” value ([1]; 1 Month, Calco oil blue V 50 ppm + Diflubenzuron 175 ppm) was 11, the “Groups of 1000 termite workers alive” value ([1]; 1 Month, Calco oil blue V 100 ppm + Diflubenzuron 175 ppm) was 9 and the “Groups of 1000 termite workers alive” value ([1]; 1 Month, Calco oil blue V 225 ppm + Diflubenzuron 50 ppm) was 7. The “Groups of 1000 termite workers alive” value ([1]; 1 Month, Calco oil blue V 500 ppm + Diflubenzuron 50 ppm) was 9, the “Groups of 1000 termite workers alive” value ([1]; 2 Months, Calco oil blue V 50 ppm + Diflubenzuron 175 ppm) was 10 and the “Groups of 1000 termite workers alive” value ([1]; 2 Months, Calco oil blue V 100 ppm + Diflubenzuron 175 ppm) was 4. For the same compound, the “Groups of 1000 termite workers alive” value ([1]; 2 Months, Calco oil blue V 225 ppm + Diflubenzuron 50 ppm) was 2, the “Groups of 1000 termite workers alive” value ([1]; 2 Months, Calco oil blue V 500 ppm + Diflubenzuron 50 ppm) was 4 and the “Groups of 1000 termite workers alive” value ([1]; 3 Months, Calco oil blue V 50 ppm + Diflubenzuron 175 ppm) was 5. For the same compound, the “Groups of 1000 termite workers alive” value ([1]; 3 Months, Calco oil blue V 100 ppm + Diflubenzuron 175 ppm) was 1, the “Groups of 1000 termite workers alive” value ([1]; 3 Months, Calco oil blue V 225 ppm + Diflubenzuron 50 ppm) was 0 and the “Groups of 1000 termite workers alive” value ([1]; 3 Months, Calco oil blue V 500 ppm + Diflubenzuron 50 ppm) was 3. For the same compound, the “effect on molting of immature termites” value ([1]; after a month and a half, 50 ppm or 100 ppm calco blue + 175 ppm diflubenzuron) was “immature termites molted prematurely”, the “effect on molting of immature termites” value ([1]; after a month, 225 ppm calco blue + 50 ppm diflubenzuron) was “immature termites molted prematurely” and the “time to mortality of a 1000-worker colony” value ([1]; calco blue + diflubenzuron combination, depending on health and age of the colony) was “about 4 weeks”. The “palatability of the bait” value ([1]; calco blue concentrations above 750 ppm) was “unpalatable”, the Bait consumption ([1]; calco blue concentrations above 1000 ppm) was “consumption is almost nonexistent” and the “time some termite colonies required to begin feeding on the formulations” value ([1]; concentration of blue >225 ppm) was “more than 8 hrs”. The “time until experimental colony was dead” value ([1]; exposure to formulation containing calco oil blue V and diflubenzuron, control boxes alive after 3 months) was “about two months and a half”, the “Bait consumption” value ([2]; Site 1 (Water Oak), day 7) was 0 g and the “Bait consumption” value ([2]; Site 1 (Water Oak), day 14) was 150 g. For the same compound, the “Bait consumption” value ([2]; Site 1 (Water Oak), day 21) was 350 g, the “Bait consumption” value ([2]; Site 1 (Water Oak), day 27) was 400 g and the “Bait consumption” value ([2]; Site 1 (Water Oak), day 46) was 400 g. The “Bait consumption” value ([2]; Site 1 (Water Oak), day 56) was 100 g, the “Bait consumption” value ([2]; Site 1 (Water Oak), day 73) was 0 g and the “Bait consumption” value ([2]; Site 1 (Water Oak), day 83) was 0 g. The “Bait consumption” value ([2]; Site 1 (Water Oak), day 102) was 0 g, the “Bait consumption” value ([2]; Site 1 (Water Oak), day 159) was 0 g and the “Bait consumption” value ([2]; Site 1 (Water Oak), day 221) was 0 g. For the same compound, the “Bait consumption” value ([2]; Site 1 (Water Oak), day 251) was 0 g, the “Bait consumption” value ([2]; Site 1 (Water Oak), day 281) was 0 g and the “Bait consumption” value ([2]; Site 2 (Ligastrum), day 7) was 0 g. The “Bait consumption” value ([2]; Site 2 (Ligastrum), day 14) was 200 g, the “Bait consumption” value ([2]; Site 2 (Ligastrum), day 21) was 450 g and the “Bait consumption” value ([2]; Site 2 (Ligastrum), day 27) was 300 g. The “Bait consumption” value ([2]; Site 2 (Ligastrum), day 46) was 250 g, the “Bait consumption” value ([2]; Site 2 (Ligastrum), day 56) was 350 g and the “Bait consumption” value ([2]; Site 2 (Ligastrum), day 73) was 250 g. For the same compound, the “Bait consumption” value ([2]; Site 2 (Ligastrum), day 83) was 300 g, the “Bait consumption” value ([2]; Site 2 (Ligastrum), day 102) was 400 g and the “Bait consumption” value ([2]; Site 2 (Ligastrum), day 159) was 200 g. The “Bait consumption” value ([2]; Site 2 (Ligastrum), day 221) was 0 g, the “Bait consumption” value ([2]; Site 2 (Ligastrum), day 251) was 0 g and the “Bait consumption” value ([2]; Site 2 (Ligastrum), day 281) was 0 g. For the same compound, the “time termite workers remained visibly colored after removing the blue colored bait formulation” value ([2]; field, 250 ppm) was 1 week, the “marking of termites after feeding on colored bait matrix” value ([2]; field, 250 ppm colored bait matrix without diflubenzuron) was “visibly colored blue” and the “period to eliminate the colonies” value ([2]; field, calco oil blue bait followed by bait with 250 ppm chitin synthesis inhibitors) was 2 months. The “effect on termite colonies and termite activity” value ([2]; field, matrix with calco oil blue V alone, 250 ppm) was “did not kill the termite colonies nor reduce termite activity”, the “Bait consumption” value ([3]; day 7) was 0 g and the “Bait consumption” value ([3]; day 14) was 200 g. The “Bait consumption” value ([3]; day 21) was 150 g, the “Bait consumption” value ([3]; day 27) was 150 g and the “Bait consumption” value ([3]; day 46) was 100 g. For the same compound, the “Bait consumption” value ([3]; day 56) was 0 g, the “Bait consumption” value ([3]; day 73) was 0 g and the “Bait consumption” value ([3]; day 83) was 0 g. The “Bait consumption” value ([3]; day 102) was 0 g, the “Bait consumption” value ([3]; day 159) was 0 g and the “Bait consumption” value ([3]; day 221) was 0 g. The “Bait consumption” value ([3]; day 251) was 0 g and the “Bait consumption” value ([3]; day 281) was 0 g.
